The target in this assay is T1, NR2F6 (Homo sapiens, UniProt P10588).
T1 construct: expressed in transfected cells; also transient transfection
T1 sequence (P10588 1-404): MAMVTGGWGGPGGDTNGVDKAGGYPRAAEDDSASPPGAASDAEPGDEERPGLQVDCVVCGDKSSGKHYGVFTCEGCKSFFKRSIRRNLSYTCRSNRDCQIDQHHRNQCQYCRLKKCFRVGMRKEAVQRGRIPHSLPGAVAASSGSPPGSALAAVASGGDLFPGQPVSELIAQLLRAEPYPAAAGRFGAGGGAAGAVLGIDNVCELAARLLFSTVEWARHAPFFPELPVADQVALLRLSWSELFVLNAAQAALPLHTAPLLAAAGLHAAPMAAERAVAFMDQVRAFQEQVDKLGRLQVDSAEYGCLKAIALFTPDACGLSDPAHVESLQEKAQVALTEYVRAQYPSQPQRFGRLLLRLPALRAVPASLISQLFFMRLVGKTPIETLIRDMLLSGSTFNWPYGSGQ
Briefly: NR2F6 agonist screening, Firefly signal cmpd/DMSO. In kind it is cell-based. The settings on record: for Firefly/Renilla (NR2F6 stable, clone F4): ratio Firefly/Renilla; for Firefly, NR2F6 stable (clone F4)/pGL4: ratio of Firefly in NR2F6 stable clone F4 to pGL4.

Setting [1] is: C11 analogs follow set (Tables 2-10).

For the molecule `COc1ccc2cc(S(=O)(=O)c3ccc(C)c(Cl)c3)c(=O)oc2c1` [Compound C261], under setting [1], the “Firefly, cmpd/DMSO repeat 1” value turned out to be 2.0 and the “Firefly, cmpd/DMSO repeat 2” value amounted to 1.4.

Take `COc1ccc2cc(S(=O)(=O)c3cc(F)cc(F)c3)c(=O)oc2c1` [Compound C262]: under setting [1], the “Firefly, cmpd/DMSO repeat 1” value is reported as 1.8 and the “Firefly, cmpd/DMSO repeat 2” value stood at 2.2.

`COc1ccc2cc(S(=O)(=O)c3cccc(C#N)c3)c(=O)oc2c1` [Compound C263]: under setting [1], the “Firefly, cmpd/DMSO repeat 1” value is recorded as 1.8 and the “Firefly, cmpd/DMSO repeat 2” value is on record as 1.7.

For `COc1ccc2cc(S(=O)(=O)c3ccccc3)c(=O)oc2c1` [Compound C264], under setting [1], the “Firefly, cmpd/DMSO repeat 1” value is listed as 1.1 and the “Firefly, cmpd/DMSO repeat 2” value is recorded as 0.8.

In the case of `COc1ccc2cc(S(=O)(=O)c3ccc(C)cc3)c(=O)oc2c1` [Compound C265], under setting [1], the “Firefly, cmpd/DMSO repeat 1” value is listed as 1.0 and the “Firefly, cmpd/DMSO repeat 2” value turned out to be 1.3.

Consider `COc1ccc(S(=O)(=O)c2cc3ccc(OC)cc3oc2=O)cc1` [Compound C266], for which, under setting [1], the “Firefly, cmpd/DMSO repeat 1” value is reported as 0.9 and the “Firefly, cmpd/DMSO repeat 2” value amounted to 1.2.

As for `COc1ccc2cc(S(=O)(=O)c3ccc(Br)cc3)c(=O)oc2c1` [Compound C267], under setting [1], the “Firefly, cmpd/DMSO repeat 1” value is 1.4 and the “Firefly, cmpd/DMSO repeat 2” value stood at 1.7.

Turning to `COc1ccc2cc(S(=O)(=O)c3ccc(C(C)(C)C)cc3)c(=O)oc2c1` [Compound C268], under setting [1], the “Firefly, cmpd/DMSO repeat 1” value turned out to be 2.8 and the “Firefly, cmpd/DMSO repeat 2” value worked out at 3.1.

For `COc1ccc2cc(S(=O)(=O)c3ccc(C(C)C)cc3)c(=O)oc2c1` [Compound C269], under setting [1], the “Firefly, cmpd/DMSO repeat 1” value was 3.0 and the “Firefly, cmpd/DMSO repeat 2” value was found to be 3.0.

Take `COc1ccc2cc(S(=O)(=O)c3ccc(C)c(C)c3)c(=O)oc2c1` [Compound C270]: under setting [1], the “Firefly, cmpd/DMSO repeat 1” value came to 3.2 and the “Firefly, cmpd/DMSO repeat 2” value is given as 3.1.

In the case of `COc1ccc2cc(S(=O)(=O)c3ccc(Cl)cc3)c(=O)oc2c1` [Compound C271], under setting [1], the “Firefly, cmpd/DMSO repeat 1” value is on record as 2.2 and the “Firefly, cmpd/DMSO repeat 2” value is 1.2.

As to `COc1ccc2cc(S(=O)(=O)c3ccc(Cl)c(Cl)c3)c(=O)oc2c1` [Compound C272], under setting [1], the “Firefly, cmpd/DMSO repeat 1” value came out at 4.5 and the “Firefly, cmpd/DMSO repeat 2” value is recorded as 3.1.

As for `O=c1oc2cc(O)ccc2cc1S(=O)(=O)c1ccccc1` [Compound C273], under setting [1], the “Firefly, cmpd/DMSO repeat 1” value is listed as 2.0 and the “Firefly, cmpd/DMSO repeat 2” value is 1.5.

As for `COc1ccc2cc(S(=O)(=O)c3ccc(OC)c(OC)c3)c(=O)oc2c1` [Compound C274], under setting [1], the “Firefly, cmpd/DMSO repeat 1” value came out at 3.3 and the “Firefly, cmpd/DMSO repeat 2” value worked out at 3.5.

In the case of `COc1ccc2cc(S(=O)(=O)c3ccc(F)c(Cl)c3)c(=O)oc2c1` [Compound C275], under setting [1], the “Firefly, cmpd/DMSO repeat 1” value is on record as 2.6 and the “Firefly, cmpd/DMSO repeat 2” value came to 2.5.

In the case of `O=c1oc2cc(O)ccc2cc1S(=O)(=O)c1ccc(F)c(Cl)c1` [Compound C276], under setting [1], the “Firefly, cmpd/DMSO repeat 1” value was found to be 1.2 and the “Firefly, cmpd/DMSO repeat 2” value came to 1.3.

For the molecule `CCN(CC)c1ccc2cc(S(=O)(=O)c3ccc(C)cc3)c(=O)oc2c1` [Compound C277], under setting [1], the “Firefly, cmpd/DMSO repeat 1” value was found to be 3.4 and the “Firefly, cmpd/DMSO repeat 2” value was 2.9.

`CCN(CC)c1ccc2cc(S(=O)(=O)c3ccc(Br)cc3)c(=O)oc2c1` [Compound C278]: under setting [1], the “Firefly, cmpd/DMSO repeat 1” value was 2.4 and the “Firefly, cmpd/DMSO repeat 2” value is 3.0.

Regarding `CCN(CC)c1ccc2cc(S(=O)(=O)c3ccc(Cl)cc3)c(=O)oc2c1` [Compound C279], under setting [1], the “Firefly, cmpd/DMSO repeat 1” value is 3.9 and the “Firefly, cmpd/DMSO repeat 2” value is on record as 2.1.

For `COc1ccc2cc(S(=O)(=O)c3ccccc3F)c(=O)oc2c1` [Compound C280], under setting [1], the “Firefly, cmpd/DMSO repeat 1” value stood at 0.6 and the “Firefly, cmpd/DMSO repeat 2” value was 0.6.

With `COc1ccc2cc(S(=O)(=O)c3cccc(Cl)c3)c(=O)oc2c1` [Compound C281], under setting [1], the “Firefly, cmpd/DMSO repeat 1” value is given as 3.0 and the “Firefly, cmpd/DMSO repeat 2” value is 4.4.

Take `COc1ccc2cc(S(=O)(=O)c3ccc(F)c(C)c3)c(=O)oc2c1` [Compound C282]: under setting [1], the “Firefly, cmpd/DMSO repeat 1” value worked out at 0.7 and the “Firefly, cmpd/DMSO repeat 2” value was 1.1.

Turning to `COc1ccc(S(=O)(=O)c2cc3cc(Br)cc(Br)c3oc2=O)cc1` [Compound C283], where the note is “Table 11”, the “Firefly, cmpd/DMSO repeat 1” value was found to be 1.0 and the “Firefly, cmpd/DMSO repeat 2” value is on record as 1.3.

As to `CC(C)c1ccc(S(=O)(=O)c2cc3cc(Br)cc(Br)c3oc2=O)cc1` [Compound C284], under “Table 11”, the “Firefly, cmpd/DMSO repeat 1” value is given as 2.9 and the “Firefly, cmpd/DMSO repeat 2” value stood at 2.5.

Turning to `Cc1ccc(S(=O)(=O)c2cc3cc(Br)cc(Br)c3oc2=O)cc1C` [Compound C285], where the note is “Table 11”, the “Firefly, cmpd/DMSO repeat 1” value is listed as 1.0 and the “Firefly, cmpd/DMSO repeat 2” value was found to be 1.0.

In the case of `O=c1oc2c(Br)cc(Br)cc2cc1S(=O)(=O)c1ccc(Cl)cc1` [Compound C286], for the setting “Table 11”, the “Firefly, cmpd/DMSO repeat 1” value amounted to 2.3 and the “Firefly, cmpd/DMSO repeat 2” value stood at 2.4.

In the case of `O=c1oc2c(Br)cc(Br)cc2cc1S(=O)(=O)c1ccc(Cl)c(Cl)c1` [Compound C287], for the setting “Table 11”, the “Firefly, cmpd/DMSO repeat 1” value is given as 3.0 and the “Firefly, cmpd/DMSO repeat 2” value is reported as 2.6.

Turning to `O=c1oc2c(F)cc(F)cc2cc1S(=O)(=O)c1ccccc1` [Compound C288], for the setting “Table 11”, the “Firefly, cmpd/DMSO repeat 1” value worked out at 6.8 and the “Firefly, cmpd/DMSO repeat 2” value was 3.3.

Turning to `COc1ccc(S(=O)(=O)c2cc3cc(F)cc(F)c3oc2=O)cc1` [Compound C289], for the setting “Table 11”, the “Firefly, cmpd/DMSO repeat 1” value was determined as 31.3 and the “Firefly, cmpd/DMSO repeat 2” value came to 15.6. Where the note is “Table 12”, the “Firefly/Renilla (NR2F6 stable, clone F4)” value worked out at 2.0; the “Firefly, NR2F6 stable (clone F4)/pGL4” value was 15.3; the “Firefly, cmpd/DMSO repeat 1” value is reported as 31.3; the “Firefly, cmpd/DMSO repeat 2” value is given as 15.6.

As for `O=c1oc2c(F)cc(F)cc2cc1S(=O)(=O)c1ccc(Br)cc1` [Compound C290], where the note is “Table 11”, the “Firefly, cmpd/DMSO repeat 1” value was 13.8 and the “Firefly, cmpd/DMSO repeat 2” value is recorded as 14.6.

`CC(C)(C)c1ccc(S(=O)(=O)c2cc3cc(F)cc(F)c3oc2=O)cc1` [Compound C291]: under “Table 11”, the “Firefly, cmpd/DMSO repeat 1” value was determined as 0.9 and the “Firefly, cmpd/DMSO repeat 2” value was 0.8.

For `Cc1cc(S(=O)(=O)c2cc3cc(F)cc(F)c3oc2=O)ccc1F` [Compound C292], under “Table 11”, the “Firefly, cmpd/DMSO repeat 1” value is 18.3 and the “Firefly, cmpd/DMSO repeat 2” value is 14.8. Also, for the setting “Table 13”, the “Firefly/Renilla (NR2F6 stable, clone F4)” value is listed as 1.1; the “Firefly, NR2F6 stable (clone F4)/pGL4” value is 9.7; the “Firefly, cmpd/DMSO repeat 1” value was 18.3; the “Firefly, cmpd/DMSO repeat 2” value is on record as 14.8.

On to `O=c1oc2c(F)cc(F)cc2cc1S(=O)(=O)c1ccc(Cl)cc1` [Compound C293], for which, under “Table 11”, the “Firefly, cmpd/DMSO repeat 1” value stood at 8.5 and the “Firefly, cmpd/DMSO repeat 2” value is recorded as 11.9.

Consider `COc1cc(Br)cc2cc(S(=O)(=O)c3ccccc3)c(=O)oc12` [Compound C294], for which, under “Table 11”, the “Firefly, cmpd/DMSO repeat 1” value is recorded as 16.5 and the “Firefly, cmpd/DMSO repeat 2” value is 16.5.

Take `COc1cc(Br)cc2cc(S(=O)(=O)c3ccc(F)cc3)c(=O)oc12` [Compound C295]: for the setting “Table 11”, the “Firefly, cmpd/DMSO repeat 1” value is on record as 4.0 and the “Firefly, cmpd/DMSO repeat 2” value was determined as 4.6.

Regarding `COc1ccc(S(=O)(=O)c2cc3cc(Br)cc(OC)c3oc2=O)cc1` [Compound C296], where the note is “Table 11”, the “Firefly, cmpd/DMSO repeat 1” value was determined as 6.0 and the “Firefly, cmpd/DMSO repeat 2” value was found to be 7.8.

The record behind these values is patent US11377442B2, “Small molecule agonists and antagonists of NR2F6 activity” (ZANDER THERAPEUTICS, INC., priority 2016, dated 2022).
